Values joined by “and” are separate entries in the source; they are usually repeats but may differ in a detail not shown here. Equal entries are not always repeated.
What was measured:
[1] = molecular target: T1, FKBP12 and mTOR (Homo sapiens, UniProt P42345+P62942); test: Fluoppi analysis: induction of FKBP12-mTOR complex formation in transfected HeLa cells; assay type: cell-based; details: for Foci intensity: raw data, one replicate per line
T1 construct: host or cells: HeLa cells
Procedure, shortened: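 Complex formation read as fluorescent foci: foci intensity over total per-cell intensity, imaged (×20, 9 fields/well) after fixation and Hoechst stain, giving EC50. Cells: HeLa transiently expressing hAG-mTOR and Ash-FKBP12, exposed to compound concentrations for 1 h at 37 °C.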

[2] = Cytotoxicity assay (CellTiter-Glo, 72 h), Jurkat; assay type: cell-based; details: human, Jurkat cells (T lymphoma), raw data (replicates)
Procedure, shortened: (§1)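 Following 4 h attachment at 1000 cells/well, the three lines received serially halved compound doses (DMSO 0.5%) for 72 h at 37 °C under 5% CO2, with cell viability then determined by CellTiter-Glo.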

[3] = tested on: T lymphoma Jurkat cells; test: Cytotoxicity assay (CellTiter-Glo, 72 h), Jurkat; assay type: cell-based; details: raw data (replicates)
Procedure, shortened: as §1

[4] = Cytotoxicity assay (CellTiter-Glo, 72 h), SKOV-3; assay type: cell-based, human; details: human, raw replicate data, read-out: SKOV3 viability (%)
Procedure, shortened: as §1

[5] = tested on: human ovarian adenocarcinoma SKOV-3 cells; test: Cytotoxicity assay (CellTiter-Glo, 72 h), SKOV-3; assay type: cell-based; details: raw replicate data
Procedure, shortened: as §1

T1 sequence (P42345 2025-2114 limits assumed): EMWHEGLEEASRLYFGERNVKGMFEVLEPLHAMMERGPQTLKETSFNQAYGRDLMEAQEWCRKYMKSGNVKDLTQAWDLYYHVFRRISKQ
T1 sequence (P62942 whole entry): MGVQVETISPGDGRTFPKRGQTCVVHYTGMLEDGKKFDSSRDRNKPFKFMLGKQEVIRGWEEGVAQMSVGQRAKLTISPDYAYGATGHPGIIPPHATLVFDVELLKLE

What does the source list for `COC1CC2CCC(C)C(O)(O2)C(=O)C(=O)N2CCCCC2C(=O)OC(C(C)CC2CCC(O)C(OC)C2)CC(O)CC(=O)C(C)C=C(C)C(O)CC(=O)C(C)CC(C)C=CC=CC=C1C` (stereo not drawn) [Compound 13]?
PPI-inducing (binding enhancing) activity between FKBP12 and mTOR compared with rapamycin (1), in words ([1]; Fluoppi): relatively weaker activities; EC50 ([1]; Fluoppi, HeLa cells, 1 h treatment, three independent biological replicates, read-out: EC50, induction of the formation of FKBP-mTOR complex): 73 nM; Foci intensity ([1]; conc 9.53674e-5 uM): 0.02036 and 0.008593 and 0.006167; Foci intensity ([1]; conc 0.000190735 uM): 0.01432 and 0.008145 and 0.01977; Foci intensity ([1]; conc 0.00038147 uM): 0.01002 and 0.01191 and 0.006949; Foci intensity ([1]; conc 0.000762939 uM): 0.02361 and 0.0319 and 0.02031; Foci intensity ([1]; conc 0.00152588 uM): 0.02629 and 0.01654 and 0.01268; Foci intensity ([1]; conc 0.00305176 uM): 0.02214 and 0.02006 and 0.01134; Foci intensity ([1]; conc 0.00610352 uM): 0.03874 and 0.01998 and 0.01509; Foci intensity ([1]; conc 0.012207 uM): 0.01596 and 0.01655 and 0.01094; Foci intensity ([1]; conc 0.0244141 uM): 0.04032 and 0.02924 and 0.04626; Foci intensity ([1]; conc 0.0488281 uM): 0.1206 and 0.1281 and 0.1053; Foci intensity ([1]; conc 0.0976562 uM): 0.3145 and 0.2601 and 0.1852; Foci intensity ([1]; conc 0.195312 uM): 0.3854 and 0.3277 and 0.371; Foci intensity ([1]; conc 0.390625 uM): 0.4069 and 0.3307 and 0.3864; Foci intensity ([1]; conc 0.78125 uM): 0.4181 and 0.3809 and 0.3423; Foci intensity ([1]; conc 1.5625 uM): 0.3991 and 0.3532 and 0.4458; Foci intensity ([1]; conc 3.125 uM): 0.3573 and 0.4306 and 0.409; Foci intensity ([1]; conc 6.25 uM): 0.3647 and 0.3805 and 0.3539; Foci intensity ([1]; conc 12.5 uM): 0.3743 and 0.3421 and 0.396; Foci intensity ([1]; conc 25 uM): 0.3317 and 0.3763 and 0.373; Foci intensity ([1]; conc 50 uM): 0.3749 and 0.3065 and 0.4374; viability at 72 h, 9.53674e-05 uM ([2]; conc 9.53674e-5 uM): 100%; viability at 72 h, 0.000190735 uM ([2]; conc 0.000190735 uM): 100%; viability at 72 h, 0.00038147 uM ([2]; conc 0.00038147 uM): 108%; viability at 72 h, 0.000762939 uM ([2]; conc 0.000762939 uM): 103%; viability at 72 h, 0.00152588 uM ([2]; conc 0.00152588 uM): 98.1%; viability at 72 h, 0.00305176 uM ([2]; conc 0.00305176 uM): 102%; viability at 72 h, 0.00610352 uM ([2]; conc 0.00610352 uM): 100%; viability at 72 h, 0.012207 uM ([2]; conc 0.012207 uM): 99.4%; viability at 72 h, 0.0244141 uM ([2]; conc 0.0244141 uM): 103%; viability at 72 h, 0.0488281 uM ([2]; conc 0.0488281 uM): 91.3%; viability at 72 h, 0.0976562 uM ([2]; conc 0.0976562 uM): 69.5%; viability at 72 h, 0.195312 uM ([2]; conc 0.195312 uM): 47.2%; viability at 72 h, 0.390625 uM ([2]; conc 0.390625 uM): 37.5%; viability at 72 h, 0.78125 uM ([2]; conc 0.78125 uM): 31.7%; viability at 72 h, 1.5625 uM ([2]; conc 1.5625 uM): 30.7%; viability at 72 h, 3.125 uM ([2]; conc 3.125 uM): 30.2%; viability at 72 h, 6.25 uM ([2]; conc 6.25 uM): 29.2%; viability at 72 h, 12.5 uM ([2]; conc 12.5 uM): 30.8%; viability at 72 h, 25 uM ([2]; conc 25 uM): 24.7%; viability at 72 h, 50 uM ([2]; conc 50 uM): 2.2%; Jurkat viability (%) ([3]; conc 9.53674e-5 uM): 112.6% and 105.4%; Jurkat viability (%) ([3]; conc 0.000190735 uM): 101.3% and 101.6%; Jurkat viability (%) ([3]; conc 0.00038147 uM): 104.4% and 104.8%; Jurkat viability (%) ([3]; conc 0.000762939 uM): 96.6% and 102.2%; Jurkat viability (%) ([3]; conc 0.00152588 uM): 101.0% and 107.9%; Jurkat viability (%) ([3]; conc 0.00305176 uM): 103.0% and 101.6%; Jurkat viability (%) ([3]; conc 0.00610352 uM): 107.7% and 103.5%; Jurkat viability (%) ([3]; conc 0.012207 uM): 102.1% and 101.9%; Jurkat viability (%) ([3]; conc 0.0244141 uM): 102.7% and 105.0%; Jurkat viability (%) ([3]; conc 0.0488281 uM): 92.1% and 89.3%; Jurkat viability (%) ([3]; conc 0.0976562 uM): 67.5% and 74.1%; Jurkat viability (%) ([3]; conc 0.195312 uM): 42.7% and 42.9%; Jurkat viability (%) ([3]; conc 0.390625 uM): 37.1% and 36.6%; Jurkat viability (%) ([3]; conc 0.78125 uM): 31.2% and 32.9%; Jurkat viability (%) ([3]; conc 1.5625 uM): 32.3%; Jurkat viability (%) ([3]; conc 3.125 uM): 28.8% and 27.1%; Jurkat viability (%) ([3]; conc 6.25 uM): 32.0% and 30.5%; Jurkat viability (%) ([3]; conc 12.5 uM): 29.9%; Jurkat viability (%) ([3]; conc 25 uM): 25.3% and 24.9%; Jurkat viability (%) ([3]; conc 50 uM): 1.7% and 1.8%; viability at 72 h, 9.53674e-05 uM ([4]; SKOV-3 cells (ovarian adenocarcinoma), conc 9.53674e-5 uM): 101%; viability at 72 h, 0.000190735 uM ([4]; SKOV-3 cells (ovarian adenocarcinoma), conc 0.000190735 uM): 105%; viability at 72 h, 0.00038147 uM ([4]; SKOV-3 cells (ovarian adenocarcinoma), conc 0.00038147 uM): 103%; viability at 72 h, 0.000762939 uM ([4]; SKOV-3 cells (ovarian adenocarcinoma), conc 0.000762939 uM): 104%; viability at 72 h, 0.00152588 uM ([4]; SKOV-3 cells (ovarian adenocarcinoma), conc 0.00152588 uM): 106%; viability at 72 h, 0.00305176 uM ([4]; SKOV-3 cells (ovarian adenocarcinoma), conc 0.00305176 uM): 104%; viability at 72 h, 0.00610352 uM ([4]; SKOV-3 cells (ovarian adenocarcinoma), conc 0.00610352 uM): 104%; viability at 72 h, 0.012207 uM ([4]; SKOV-3 cells (ovarian adenocarcinoma), conc 0.012207 uM): 100%; viability at 72 h, 0.0244141 uM ([4]; SKOV-3 cells (ovarian adenocarcinoma), conc 0.0244141 uM): 97.8%; viability at 72 h, 0.0488281 uM ([4]; SKOV-3 cells (ovarian adenocarcinoma), conc 0.0488281 uM): 100%; viability at 72 h, 0.0976562 uM ([4]; SKOV-3 cells (ovarian adenocarcinoma), conc 0.0976562 uM): 93.5%; viability at 72 h, 0.195312 uM ([4]; SKOV-3 cells (ovarian adenocarcinoma), conc 0.195312 uM): 80.1%; viability at 72 h, 0.390625 uM ([4]; SKOV-3 cells (ovarian adenocarcinoma), conc 0.390625 uM): 72.3%; viability at 72 h, 12.5 uM ([4]; SKOV-3 cells (ovarian adenocarcinoma), conc 12.5 uM): 74%; viability at 72 h, 25 uM ([4]; SKOV-3 cells (ovarian adenocarcinoma), conc 25 uM): 76.6%; viability at 72 h, 50 uM ([4]; SKOV-3 cells (ovarian adenocarcinoma), conc 50 uM): 61.1%; viability at 72 h, 0.78125 uM ([4]; SKOV-3 ovarian adenocarcinoma cells, conc 0.78125 uM): 70.5%; viability at 72 h, 1.5625 uM ([4]; SKOV-3 ovarian adenocarcinoma cells, conc 1.5625 uM): 74.6%; viability at 72 h, 3.125 uM ([4]; SKOV-3 ovarian adenocarcinoma cells, conc 3.125 uM): 67.3%; viability at 72 h, 6.25 uM ([4]; SKOV-3 ovarian adenocarcinoma cells, conc 6.25 uM): 76.1%; SKOV3 viability (%) ([5]; conc 9.53674e-5 uM): 107.4% and 106.9%; SKOV3 viability (%) ([5]; conc 0.000190735 uM): 98.8% and 103.7%; SKOV3 viability (%) ([5]; conc 0.00038147 uM): 108.6% and 110.4%; SKOV3 viability (%) ([5]; conc 0.000762939 uM): 108.3% and 103.9%; SKOV3 viability (%) ([5]; conc 0.00152588 uM): 101.0% and 99.9%; SKOV3 viability (%) ([5]; conc 0.00305176 uM): 105.3% and 103.9%; SKOV3 viability (%) ([5]; conc 0.00610352 uM): 110.1% and 106.3%; SKOV3 viability (%) ([5]; conc 0.012207 uM): 101.2% and 96.8%; SKOV3 viability (%) ([5]; conc 0.0244141 uM): 104.0%; SKOV3 viability (%) ([5]; conc 0.0488281 uM): 98.0% and 96.8%; SKOV3 viability (%) ([5]; conc 0.0976562 uM): 97.2% and 95.3%; SKOV3 viability (%) ([5]; conc 0.195312 uM): 69.7% and 74.1%; SKOV3 viability (%) ([5]; conc 0.390625 uM): 69.6% and 63.1%; SKOV3 viability (%) ([5]; conc 0.78125 uM): 63.6% and 66.9%; SKOV3 viability (%) ([5]; conc 1.5625 uM): 66.7%; SKOV3 viability (%) ([5]; conc 3.125 uM): 68.3% and 74.5%; SKOV3 viability (%) ([5]; conc 6.25 uM): 79.3% and 78.5%; SKOV3 viability (%) ([5]; conc 12.5 uM): 75.9%; SKOV3 viability (%) ([5]; conc 25 uM): 73.5% and 81.4%; SKOV3 viability (%) ([5]; conc 50 uM): 55.5% and 58.9%

Reference: article PMC7419507, “In vitro Cas9-assisted editing of modular polyketide synthase genes to produce desired natural product derivatives” (Nature Communications, 2020)
